Where two headings read alike, the source gives them in different places. Blank lines part the entries; values can stand above or below the molecule they belong to.
Key:
Thermal stability by DSC = format: physicochemical
Protocol: DSC was performed in the MicroCal™ VP-Capillary DSC (GE Healthcare) using a purified protein sample (anti-HER2 biparatopic antibodies and anti-HER2 biparatopic-ADCs) adjusted to about 0.3 mg/ml in PBS. The sample was scanned from 20 to 100° C. at a 60° C./hr rate, with low feedback, 8 sec filter, 5 min preTstat, and 70 psi nitrogen pressure. The resulting thermogram was analyzed using Origin 7 software.
The DSC was measured before and after SEC purification.

FaDu xenograft = format: in vivo; settings: for median survival: study duration 59 days
Protocol: FaDu cells are derived from squamous cell cancer of the head and neck that is HER2 low, non-HER2 gene amplified, HER3+, EGFR+ and highly sensitive to Cisplatin at the MTD.
Tumor cell suspensions were implanted subcutaneously into athymic nude mice. […] Cisplatin was purchased and provided for the study by Charles River Laboratories (Morrisville, N.C.). Animals were treated according to Regimen 1 at Day 1, followed by Regimen 2 on subsequent days as noted in Table A4.

recombinant human HER2 = recombinant human HER2 (Homo sapiens, UniProt P04626); assay: SPR binding of captured antibody to HER2 at varying antibody capture levels
Description: An SPR assay was used to evaluate the mechanism by which an exemplary anti-HER2 biparatopic antibody binds to HER2 ECD; specifically, to understand whether both paratopes of one biparatopic antibody molecule can bind to one HER2 ECD (Cis binding; 1:1 antibody to HER2 molecules) or if each paratope of one biparatopic antibody can bind two different HER2 ECDs (Trans binding; 1:2 antibody to HER2 molecules). […] The correlation between a reduced (slower) off-rate with increasing antibody capture levels (surface density) is an indication of Trans binding (i.e. one antibody molecule binding to two HER2 molecules.
Between 2000 and 4000 RU of anti-human Fc injected at concentration between 5 and 10 μg/ml was immobilized on a CMS chip using standard amine coupling. […] HER2 dilutions were analyzed in duplicate. Sensograms were fit globally to a 1: 1 Langmuir binding model. All experiments were conducted at 25° C.
The following experiment was conducted to compare HER2 binding kinetics (kd, off-rate) of exemplary anti-HER2 ECD2×ECD4 biparatopic antibodies when captured at varying surface densities by SPR.

HBCx-5 xenograft = assay: Trastuzumab resistant breast cancer PDX, ADC (Example 20); format: in vivo, athymic nude mice; settings: Day 43
Protocol: Dosing for each group was as follows:
A) IgG control was dosed intravenously with a loading dose of 15 mg/kg on study day 1 and maintenance doses of 10 mg/kg administered on study days 4, 8, 11, 15, 18, 22, and 25
Tumor volume was measured throughout the course of the study, and the mean tumor volume, T/C ratio, number of responders, complete response, and zero residual disease parameters were assessed at day 43.

JIMT-1 cells = assay: Cellular staining and location by confocal microscopy at 1, 3 and 16 h; format: cell-based, human; settings: 200 nM antibody, 1 h, 3 h
Protocol: Cells were gently washed two times with warmed sterile PBS (500 ml/well). Cells were fixed with 250 ml of 10% formalin/PBS solution for 10 min at RT. The fixed cells were washed three times with PBS (500 μl/well), permeabilized with 250 μl/well of PBS containing 0.2% Triton X-100 for 5 min, and washed three times with 500 μl/well PBS. Cells were blocked with 500 μl/well of PBS+5% goat serum for 1 h at RT. […] Cells were washed three times with 500 μl/well of PBS and the coverslips containing fixed cells were then mounted on a slide using Prolong gold anti-fade with DAPI (Life Technologies; # P36931). 60× single images were acquired using Olympus FV1000 Confocal microscope.

[1] = Kaplan-Meier survival, log-rank test

Molecule: v9996: monovalent anti-HER2 antibody, pertuzumab Fab with Y96A in VL and T30A/A49G/L69F in VH
- DSC post-SEC ΔTm wrt WT (C) (Thermal stability by DSC; after SEC purification, WT = v10013): −0.7 C
- DSC pre-SEC ΔTm wrt WT (C) (Thermal stability by DSC; before SEC purification, WT = v10013): −0.2 C
- DSC post-SEC Tm (C) (Thermal stability by DSC; one-armed antibody, after SEC purification): 77.2 C
- DSC pre-SEC Tm (C) (Thermal stability by DSC; one-armed antibody, before SEC purification): 77.2 C

Molecule: N.N.[Cl][Pt][Cl] [cisplatin]
- RECIST Scores CR(TV < 20 mm^3) (FaDu xenograft; Day 25, animals/group): 0/15
- RECIST Scores PD(>20% baseline growth) (FaDu xenograft; Day 25, animals/group): 15/15
- RECIST Scores PR(>30% baseline regression) (FaDu xenograft; Day 25, animals/group): 0/15
- RECIST Scores SD(neither PD or PR) (FaDu xenograft; Day 25, animals/group): 0/15
- Mean TV % Δ from base line (FaDu xenograft; Day 25, regimens of Table A4): (782%)
- Treatment/Control Ratio (FaDu xenograft; Day 25, regimens of Table A4): 0.54
- Mean TV (FaDu xenograft; Day 25, regimens of Table A4 (antibodies 15 then 10 mg/kg iv; cisplatin 2 mg/kg ip)): 1070 mm^3
- Log Rank Summary (survival) vs 6336 (FaDu xenograft; [1]): n/s
- Log Rank Summary (survival) vs 6908 (FaDu xenograft; [1]): ★★★ (★★★ = P < 0.001)
- Log Rank Summary (survival) vs 10000 (FaDu xenograft; [1]): ★ (★ = P < 0.05)
- Median Time to Progression (FaDu xenograft; regimens of Table A4): 8.4 days
- median survival (FaDu xenograft): 40 days
- median survival (FaDu xenograft; euthanized when tumor volume exceeded 2000 mm^3): 40 days

- kd (1/s) over a range of antibody capture levels (recombinant human HER2): no change in kd values
Molecule: v4182: monovalent anti-HER2 antibody, pertuzumab Fab on chain A; the OA of Table 11D

Molecule: T-DM1
- Complete response (>10% baseline regression) (HBCx-5 xenograft): 1/7
- Mean TV % change from Baseline (HBCx-5 xenograft): +65%
- Mean TV (mm3) (HBCx-5 xenograft): 193 mm3
- Responders (TV < 50% of control) (HBCx-5 xenograft): 6/7
- T/C (IgG) ratio (HBCx-5 xenograft): 0.21
- Zero residual disease (TV < 20 mm3) (HBCx-5 xenograft): 0/7

Molecule: v4184: bivalent anti-HER2 antibody, pertuzumab Fabs, heterodimeric Fc, pertuzumab analog
- cellular staining and location (JIMT-1 cells): pronounced plasma membrane staining at the 1, 3 and 16 h time points

— US20200297862A1, “METHODS OF USING BISPECIFIC ANTIGEN-BINDING CONSTRUCTS TARGETING HER2” (Zymeworks Inc., priority 2016, published 2020)
